Patent US20060062863A1, “Compositions for anti-obesity, health-restorative and health-promotional benefits” (priority 2004, published 2006)

Test: Food intake and body weight in haloperidol-treated albino rats
Format: in vivo
Settings: for % change in body weight: day-21 vs initial value; for % change in food intake: during the 21-day period vs initial value
Text: The results of administration of the Type-I saponins or the total extractives (comprising Type-I to -III compounds) of Chlorophytum arundinaceum on the attendant changes in the food intake and body weight of albino rats (270±20 grams) are given in Table-1. Administration of haloperidol causes obesity as it appreciably increases food intake and induces rapid weight gain. The feeder contained at least three times more pellets than are normally consumed. Food intake and the body weight were assessed for one week in all rats prior to initiation of administration of the test compound(s). Both Type-I saponins and the total extractives annulled the gluttonous craving for food due to haloperidol with appreciable decrease in weight gain, compared to the haloperidol group. […] Sibutramine is used as a recognized anorexic drug.

[1] = 10 mg/Kg p.o. once daily for 21 days + haloperidol 20 mg/Kg i.p.
[2] = haloperidol 20 mg/Kg i.p. once daily for 21 days, alone

Row | SMILES | % change in body weight [1] | % change in food intake [1] [%] | % change in body weight [2] | % change in food intake [2]
1 | CC(C)CC(N(C)C)C1(c2ccc(Cl)cc2)CCC1 (stereo not shown) [Sibutramine] | +0.28% | −0.37 |  | 
2 | O=C(CCCN1CCC(O)(c2ccc(Cl)cc2)CC1)c1ccc(F)cc1 [Haloperidol] |  |  | +35.13% | +45.32%
